Results from article PMC9388626, “STUB1 is an intracellular checkpoint for interferon gamma sensing” (Scientific Reports, 2022).

Tested on: B16-F10 cells
Test: Proteomics by mass spectrometry
Type: cell-based, murine
Experimental: After overnight incubation, the culture media were replaced with fresh media (DMEM + 10% FBS) supplemented with 0.03 ng ml^−1 of recombinant mouse IFNγ (R&D Systems, #485-MI-100). After 24 h treatment, the cells were trypsinized, collected and washed twice with 0.5 ml PBS. The cell pellets collected from three independent experiments on separate day were lysed in 100 µl of lysis buffer containing 4% sodium dodecyl sulfate, 50 mM Tris–HCl pH 7.5, 50 µg ml^−1 of DNase (Roche, #10104159001), 50 µg ml^−1 of RNase (Roche, #10109169001) and Halt protease inhibitor cocktail (Thermo Scientific, #78430) on ice for 30 min followed by 65 °C for 30 min. Lysates were clarified by centrifugation at 16,000 g at 10 °C for 30 min. Protein content was re-extracted from the pellet with 50 µl of lysis buffer, sonicated with a single burst using a probe sonicator and heated at 95 °C for 10 min before centrifugation at 16,000 g at 10 °C for 15 min. Lysates from first and second extractions were pooled. Protein concentration was determined using BCA protein assay kit (Pierce, # 23225). Detergent removal and protein digestion were performed in centrifugal suspension trap columns (Protifi, C02-micro) according to the manufacturer’s instructions. Briefly, 80 µg protein extract from each sample was reduced with 50 mM dithiothreitol (Sigma, #43815) at 95 °C for 10 min and then alkylated with 100 mM iodoacetamide (Sigma, I2512) in the dark at ambient temperature for 30 min. The samples were acidified with 1.2% of phosphoric acid and mixed well with washing buffer consisting of 90% methanol and 100 mM ammonium bicarbonate. The samples were transferred to the suspension trap columns and centrifuged at 4000 g for 30 s. The columns were washed 3 times with washing buffer. Proteins trapped in the suspension bed were digested in 50 mM ammonium bicarbonate with trypsin and endoproteinase Lys-C (Promega, V5073) at enzyme to protein ratio 1:25 in a 47 °C waterbath for 2 h. Peptides were eluted firstly with 50 mM ammonium bicarbonate, then with 0.2% formic acid and lastly with 50% acetonitrile and 0.2% formic acid. The eluates were pooled and vacuum dried completely. Dried peptides were reconstituted with 0.1% formic acid in water, followed by injecting 4 µg for mass spectrometry analysis. Peptides were loaded on a reverse phase EASY-Spray column (50 cm × 75 μm inner diameter) operated using Easy-nLC 1200 (Thermo Fisher Scientific) coupled online to a Q-Exactive HF-X mass spectrometer (Thermo Fisher Scientific). Peptides were separated using a 120 min linear gradient at a flow rate of 300 nL min^−1. The Q-Exactive was operated in ‘top-10’ data-dependent acquisition (DDA) mode with full scan acquired at a resolution of 120,000 (scan range 200–1800 m/z) with an automatic gain control (AGC) target of 3e6. The top ten most abundant ions from the full scan were isolated with an isolation width of 0.7 m/z and fragmented by higher energy collisional dissociation (HCD) with normalized collision energy (NCE) of 27. MS/MS scan was acquired at a resolution of 30,000 with an AGC target of 1e5. The default charge state was set at 2 and dynamic exclusion was enabled for 10 s. Maximum ion injection time for full scan and MS/MS scan were 100 ms and 105 ms respectively.
DDA raw files were processed with Proteome Discoverer 2.4 using Sequest HT search engine where mass spectrometric data was searched against SwissProt TaxID 10090 mouse database (v2017-10-25). Percolator was used to validate search results based on the concatenated mode where only the best scoring PSMs (target/decoy) were considered. Trypsin was specified as the enzyme, cleaving after all lysine and arginine residues and allowing up to two missed cleavages. Carbamidomethylation of cysteines was set as fixed modification while variable modifications included oxidation of methionine, acetylation of N-terminus, N-terminal loss of methionine and N-terminal loss of metionine along with the addition of an acetyl group. […]

gStub1 #1 (guide GCATTGCTAAGAAGAAGCGC; chemistry not given here)
Log2(FC) (B2M (Fig. 2g)): 2.591 | Log2(FC) (BST2 (Fig. 2g)): 2.607 | Log2(FC) (ERAP1 (Fig. 2g)): 2.501 | Log2(FC) (GBP2 (Fig. 2g)): 4.916 | Log2(FC) (H2-D1 (Fig. 2g)): 1.708 | Log2(FC) (IFI35 (Fig. 2g)): 2.548 | Log2(FC) (IRGM1 (Fig. 2g)): 4.787 | Log2(FC) (MOV10 (Fig. 2g)): 1.934 | Log2(FC) (PSME1 (Fig. 2g)): 1.818 | Log2(FC) (PSME2 (Fig. 2g)): 2.036 | Log2(FC) (STAT1 (Fig. 2g)): 2.521 | Log2(FC) (STAT3 (Fig. 2g)): 1.035 | Log2(FC) (TGTP1/TGTP2 (Fig. 2g)): 7.1
